# Literature values in US20080003608A1, “Highly Specific Polyclonal Antibodies of Individual Core Histone and Uses Thereof” (priority 2004, published 2008).
# Target: T1, p300 (Homo sapiens, UniProt Q09472)
# T1 construct: lane 3 curcumin (75 μM) treated cells, lane 4, curcumin (100 μM) treated cells; endogenous in cells
# Settings: reference (2)
# T1 sequence (Q09472 whole entry, species assumed): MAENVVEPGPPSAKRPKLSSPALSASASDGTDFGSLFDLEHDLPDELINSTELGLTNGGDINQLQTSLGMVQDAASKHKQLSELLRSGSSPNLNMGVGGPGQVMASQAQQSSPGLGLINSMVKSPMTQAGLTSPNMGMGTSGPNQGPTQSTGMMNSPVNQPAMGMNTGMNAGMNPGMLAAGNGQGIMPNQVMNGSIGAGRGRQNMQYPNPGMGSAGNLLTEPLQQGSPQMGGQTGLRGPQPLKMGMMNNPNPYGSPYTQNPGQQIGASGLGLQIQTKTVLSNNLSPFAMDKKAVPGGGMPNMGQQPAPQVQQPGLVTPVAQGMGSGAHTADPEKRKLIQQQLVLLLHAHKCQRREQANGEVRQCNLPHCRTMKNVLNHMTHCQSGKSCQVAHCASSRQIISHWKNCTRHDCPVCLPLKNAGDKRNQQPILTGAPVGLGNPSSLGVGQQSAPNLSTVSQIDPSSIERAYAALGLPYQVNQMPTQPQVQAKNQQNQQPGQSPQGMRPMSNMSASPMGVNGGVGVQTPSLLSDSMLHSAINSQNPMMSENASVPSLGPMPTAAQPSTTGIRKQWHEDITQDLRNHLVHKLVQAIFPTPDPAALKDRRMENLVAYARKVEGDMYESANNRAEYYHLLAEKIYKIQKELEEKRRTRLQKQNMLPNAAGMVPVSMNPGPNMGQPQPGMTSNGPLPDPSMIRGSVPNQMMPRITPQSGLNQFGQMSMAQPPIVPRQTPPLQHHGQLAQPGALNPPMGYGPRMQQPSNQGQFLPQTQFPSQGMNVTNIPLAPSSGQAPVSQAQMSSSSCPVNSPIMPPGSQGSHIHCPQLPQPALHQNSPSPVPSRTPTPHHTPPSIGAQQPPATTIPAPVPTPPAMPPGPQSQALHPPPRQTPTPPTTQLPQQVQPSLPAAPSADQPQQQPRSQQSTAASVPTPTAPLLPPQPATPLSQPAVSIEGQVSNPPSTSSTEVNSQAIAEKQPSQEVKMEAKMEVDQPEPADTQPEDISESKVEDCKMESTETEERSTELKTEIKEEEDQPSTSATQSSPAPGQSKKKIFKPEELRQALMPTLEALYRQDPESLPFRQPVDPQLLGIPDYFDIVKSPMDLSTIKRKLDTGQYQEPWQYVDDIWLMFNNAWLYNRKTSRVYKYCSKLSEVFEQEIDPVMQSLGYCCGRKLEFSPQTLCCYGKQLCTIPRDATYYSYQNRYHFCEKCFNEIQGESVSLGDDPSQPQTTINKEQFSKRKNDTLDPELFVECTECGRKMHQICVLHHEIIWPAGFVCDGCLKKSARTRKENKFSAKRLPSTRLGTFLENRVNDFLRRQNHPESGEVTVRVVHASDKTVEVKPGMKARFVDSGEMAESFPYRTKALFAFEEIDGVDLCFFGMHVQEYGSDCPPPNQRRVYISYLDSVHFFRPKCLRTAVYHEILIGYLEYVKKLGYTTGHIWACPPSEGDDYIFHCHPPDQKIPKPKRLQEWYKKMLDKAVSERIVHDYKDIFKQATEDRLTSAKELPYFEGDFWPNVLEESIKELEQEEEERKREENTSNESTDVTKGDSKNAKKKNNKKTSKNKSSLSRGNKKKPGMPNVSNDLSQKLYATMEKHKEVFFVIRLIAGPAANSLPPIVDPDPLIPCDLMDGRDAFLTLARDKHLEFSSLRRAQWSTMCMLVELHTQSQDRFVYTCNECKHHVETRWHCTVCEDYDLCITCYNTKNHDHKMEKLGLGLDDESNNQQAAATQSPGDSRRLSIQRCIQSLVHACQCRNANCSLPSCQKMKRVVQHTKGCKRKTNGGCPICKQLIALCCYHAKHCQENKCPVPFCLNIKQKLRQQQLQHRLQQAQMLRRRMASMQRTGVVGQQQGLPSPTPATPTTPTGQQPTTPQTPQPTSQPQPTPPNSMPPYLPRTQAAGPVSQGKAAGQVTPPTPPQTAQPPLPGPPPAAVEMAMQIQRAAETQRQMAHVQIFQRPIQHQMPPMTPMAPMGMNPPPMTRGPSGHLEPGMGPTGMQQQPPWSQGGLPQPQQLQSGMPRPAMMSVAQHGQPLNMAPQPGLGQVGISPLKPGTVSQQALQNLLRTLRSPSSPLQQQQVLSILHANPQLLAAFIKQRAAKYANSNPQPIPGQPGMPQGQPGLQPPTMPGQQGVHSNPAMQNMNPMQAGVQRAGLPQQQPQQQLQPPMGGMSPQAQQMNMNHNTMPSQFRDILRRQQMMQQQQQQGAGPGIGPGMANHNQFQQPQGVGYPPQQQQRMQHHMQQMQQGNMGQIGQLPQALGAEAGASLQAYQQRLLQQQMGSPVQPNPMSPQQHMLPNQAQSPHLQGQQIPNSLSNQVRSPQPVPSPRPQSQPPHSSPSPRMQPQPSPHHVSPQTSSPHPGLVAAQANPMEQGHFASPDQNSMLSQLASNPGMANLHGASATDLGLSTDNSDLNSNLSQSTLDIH
smiles,measurement,value
COc1cc(/C=C/C(=O)CC(=O)/C=C/c2ccc(O)c(OC)c2)ccc1O [Curcumin],HAT inhibition,potent p300-specific HAT inhibitor
